Measured values taken from patent publication US5109111A, “CRF antagonists” (The Salk Institute for Biological Studies, priority 1990, dated 1992).
Square brackets hold non-standard residues; d marks the D form. Peptide text beside a SMILES is read from it. Nle = CCCC[C@H](N)C(=O)O; Nva = CCC[C@H](N)C(=O)O

Key:
[1] = system: secretion of ACTH and β-endorphin-like (β-END-LI) immunoactivities; test: hCRF stimulation of ACTH and β-END-LI secretion in vivo in rats
Description: Plasma levels of ACTH and β-END-LI are elevated for at least 5-20 minutes following the intraveneous administration of hCRF to nembutal-anesthesized male rats and to quiescent male or female rats with indwelling intravenous cannulae. […] These antagonists should counteract such effects.

[2] = system: TRF-stimulated secretion of TSH and prolactin; test: Specificity: TRF-stimulated secretion of TSH and prolactin; format: cell-based
Source text: (§1) Compared to AHC(9-41), a potent CRF antagonist disclosed in U.S. Pat. No. 4,605,642, this peptide was more than 17 times as potent.

ACTH release = test: In vivo duration of lowering ACTH release after iv injection, against the Standard; parameters: species or system rats
[3] = system: GRF-stimulated secretion of GH; test: Specificity: GRF-stimulated secretion of GH; format: cell-based
Source text: as §1

[4] = system: GnRH-stimulated secretion of LH and FSH; test: Specificity: GnRH-stimulated secretion of LH and FSH; format: cell-based
Source text: as §1

[5] = system: secretion of ACTH stimulated by oCRF in cultured rat pituitary cells; test: Blocking of oCRF-stimulated ACTH and β-endorphin secretion by cultured rat pituitary cells; format: cell-based; settings: result in words
Description: The effectiveness of synthetic CRF antagonists to block the secretion of ACTH and β-endorphin by cultured rat pituitary cells is measured using the procedure as generally set forth in Vale et al., Endocrinology, 91, 562 (1972).

CC[C@H](C)[C@H](NC(=O)[C@@H](NC(=O)[C@H](CCC(=O)O)NC(=O)[C@H](CCSC)NC(=O)[C@H](CC(C)C)NC(=O)[C@H](CCCCN)NC(=O)[C@H](CCCNC(=N)N)NC(=O)[C@H](CC(N)=O)NC(=O)[C@H](CO)NC(=O)[C@H](Cc1c[nH]cn1)NC(=O)[C@H](C)NC(=O)[C@H](CCC(N)=O)NC(=O)[C@H](CCC(N)=O)NC(=O)[C@H](C)NC(=O)[C@H](CC(C)C)NC(=O)[C@H](CCC(N)=O)NC(=O)[C@H](CCC(=O)O)NC(=O)[C@H](C)NC(=O)[C@H](CCCNC(=N)N)NC(=O)[C@H](C)NC(=O)[C@H](CCSC)NC(=O)[C@H](CCC(=O)O)NC(=O)[C@H](CC(C)C)NC(=O)[C@@H](NC(=O)[C@H](CCC(=O)O)NC(=O)[C@H](CCCNC(=N)N)NC(=O)[C@H](CC(C)C)NC(=O)[C@H](CC(C)C)NC(=O)[C@H](Cc1c[nH]cn1)NC(=O)[C@H](Cc1ccccc1)NC(=O)[C@@H](NC(=O)[C@H](CC(C)C)NC(=O)[C@H](CC(=O)O)NC(=O)[C@H](CC(C)C)NC(=O)[C@H](CO)NC(=O)[C@@H](NC(=O)[C@@H]1CCCN1C(=O)[C@@H]1CCCN1C(=O)[C@H](CCC(=O)O)NC(=O)[C@H](CCC(=O)O)NC(=O)[C@@H](N)CO)[C@@H](C)CC)[C@@H](C)O)C(C)C)[C@@H](C)CC)C(N)=O [hCRF]
time plasma levels of ACTH and β-END-LI are elevated ([1]; intravenous hCRF, nembutal-anesthetized male rats and quiescent cannulated male or female rats): 5 to 20 min
stimulation of secretion of ACTH and β-END-LI in vivo ([1]; several rat preparations): powerful stimulator

AHC(9-41)
effect on TRF-stimulated secretion of TSH and prolactin [2]: no effect
duration of bioactivity (lowering ACTH release) (ACTH release; dosages of 0.5 mg, two runs): about 40 minutes
duration of effectiveness in lowering ACTH release (ACTH release; dose of 0.1 mg): no measurable effect
effect on GRF-stimulated secretion of GH [3]: no effect
effect on GnRH-stimulated secretion of LH and FSH [4]: no effect

CCCC[C@H](NC(=O)[C@H](CC(C)C)NC(=O)[C@H](CC(C)C)NC(=O)[C@H](CCCNC(=N)N)NC(=O)[C@H](CC(N)=O)NC(=O)[C@H](C)NC(=O)[C@H](C)NC(=O)[C@H](C)NC(=O)[C@H](CCC(N)=O)NC(=O)[C@H](CCC(=O)O)NC(=O)[C@H](C)NC(=O)[C@H](CCC(=O)O)NC(=O)[C@H](CCC(N)=O)NC(=O)[C@H](CCC(=O)O)NC(=O)[C@H](C)NC(=O)[C@H](CCCCN)NC(=O)[C@H](C)NC(=O)[C@H](CCSC)NC(=O)[C@H](CCC(=O)O)NC(=O)[C@H](CC(C)C)NC(=O)[C@H](CCSC)NC(=O)[C@H](CCC(=O)O)NC(=O)[C@H](CCCNC(=N)N)NC(=O)[C@H](CC(C)C)NC(=O)[C@H](CC(C)C)NC(=O)[C@H](CCC(=O)O)NC(=O)[C@H](N)CC(C)C)C(=O)N[C@@H](CCC(=O)O)C(=O)N[C@@H](CCC(=O)O)C(=O)N[C@@H](C)C(N)=O [XXV, [D-Leu^12, Glu^13, Ala^33, Nle^38]-AHC (12-41)] (H-[dL]ELLREMLEMAKAEQEAEQAAANRLL[Nle]EEA-NH2)
inhibition of the secretion of ACTH and β-END-LI [5]: inhibits the secretion of ACTH and β-END-LI

[D-Val^12, Nle^21,38, Ile^24,27, Nva^41 ]-hCRF(11-41) [XXVIII]
inhibition of the secretion of ACTH and β-END-LI [5]: inhibits the secretion of ACTH and β-END-LI

[4FD-Phe^12, CML^14,15,19,27,33,37, CMA^22,32,41, Nle^38 ]-AHC(12-41) [XIX]
inhibition of the secretion of ACTH and β-END-LI [5]: inhibits the secretion of ACTH and β-END-LI

CCCC[C@H](NC(=O)[C@H](CC(C)C)NC(=O)[C@H](CC(C)C)NC(=O)[C@H](CCCNC(=N)N)NC(=O)[C@H](CC(N)=O)NC(=O)[C@H](CC(C)C)NC(=O)[C@H](C)NC(=O)[C@H](C)NC(=O)[C@H](CCC(N)=O)NC(=O)[C@H](CCC(=O)O)NC(=O)[C@H](C)NC(=O)[C@H](C)NC(=O)[C@H](CCC(N)=O)NC(=O)[C@H](CCC(=O)O)NC(=O)[C@H](C)NC(=O)[C@H](CCCCN)NC(=O)[C@H](C)NC(=O)[C@H](CC(C)C)NC(=O)[C@H](CCC(=O)O)NC(=O)[C@H](CC(C)C)NC(=O)[C@H](CCCC)NC(=O)[C@H](CCC(=O)O)NC(=O)[C@H](CCCNC(=N)N)NC(=O)[C@H](CC(C)C)NC(=O)[C@H](CC(C)C)NC(=O)[C@H](Cc1c[nH]cn1)NC(=O)[C@@H](N)Cc1ccccc1)C(=O)N[C@@H](CCC(=O)O)C(=O)N[C@@H](CCC(=O)O)C(=O)N[C@@H](C)C(N)=O [XXII, [Nle^18,38, Leu^21, Ala^27]-AHC (12-41)] (H-FHLLRE[Nle]LELAKAEQAAEQAALNRLL[Nle]EEA-NH2)
inhibition of the secretion of ACTH and β-END-LI [5]: inhibits the secretion of ACTH and β-END-LI

CCCC[C@H](NC(=O)[C@H](CCCCN)NC(=O)[C@H](C)NC(=O)[C@H](CCSC)NC(=O)[C@H](CCC(=O)O)NC(=O)[C@H](C)NC(=O)[C@@H](NC(=O)[C@H](CCC(=O)O)NC(=O)[C@H](CCCNC(=N)N)NC(=O)[C@H](CC(C)C)NC(=O)[C@H](CC(C)C)NC(=O)[C@H](Cc1c[nH]cn1)NC(=O)[C@H](N)Cc1ccc(O)cc1)C(C)C)C(=O)N[C@@H](CCC(=O)O)C(=O)N[C@@H](CCC(N)=O)C(=O)N[C@@H](CCC)C(=O)N[C@@H](C)C(=O)N[C@@H](CCC(N)=O)C(=O)N[C@@H](CCC(N)=O)C(=O)N[C@@H](C)C(=O)N[C@@H](Cc1c[nH]cn1)C(=O)N[C@@H](CO)C(=O)N[C@@H](CC(N)=O)C(=O)N[C@@H](CCCNC(=N)N)C(=O)N[C@@H](CCCCN)C(=O)N[C@@H](CC(C)C)C(=O)N[C@@H](CCCC)C(=O)N[C@@H](CCC(=O)O)C(=O)N[C@@H](CCCC)C(=O)N[C@H](C(N)=O)[C@@H](C)CC [XXX, [D-Tyr^12, Ala^19, Lys^23, Nle^24,38,40 Nva^27,]-hCRF(12-41)] (H-[dY]HLLREVAEMAK[Nle]EQ[Nva]AQQAHSNRKL[Nle]E[Nle]I-NH2)
inhibition of the secretion of ACTH and β-END-LI [5]: inhibits the secretion of ACTH and β-END-LI

CCCC[C@H](NC(=O)[C@H](CC(C)C)NC(=O)[C@H](CC(C)C)NC(=O)[C@H](CCCNC(=N)N)NC(=O)[C@H](CC(N)=O)NC(=O)[C@H](CC(N)=O)NC(=O)[C@H](C)NC(=O)[C@H](C)NC(=O)[C@H](CCC(N)=O)NC(=O)[C@H](CCC(N)=O)NC(=O)[C@H](CCCCN)NC(=O)[C@H](CCC(=O)O)NC(=O)[C@H](CCCCN)NC(=O)[C@H](CCC(=O)O)NC(=O)[C@H](CCC(N)=O)NC(=O)[C@H](CCCCN)NC(=O)[C@H](C)NC(=O)[C@@H](NC(=O)[C@H](CCC(=O)O)NC(=O)[C@@H](NC(=O)[C@H](CCSC)NC(=O)[C@H](CCCCN)NC(=O)[C@H](CCCNC(=N)N)NC(=O)[C@H](CC(C)C)NC(=O)[C@H](CC(C)C)NC(=O)[C@H](CCC(=O)O)NC(=O)[C@H](CC(C)C)NC(=O)[C@@H](N)CO)[C@@H](C)CC)[C@@H](C)CC)C(=O)N[C@@H](CC(=O)O)C(=O)N[C@H](C(=O)N[C@@H](CCC(N)=O)C(N)=O)[C@@H](C)O [XVI, [Ala^21, Nle^37, Gln^40]-sauvagine (10-40)] (H-SLELLRKMIEIAKQEKEKQQAANNRLL[Nle]DTQ-NH2)
inhibition of the secretion of ACTH and β-END-LI [5]: inhibits the secretion of ACTH and β-END-LI

CCCC[C@H](NC(=O)[C@H](CC(C)C)NC(=O)[C@H](CC(C)C)NC(=O)[C@H](CCCNC(=N)N)NC(=O)[C@H](CC(N)=O)NC(=O)[C@H](CC(N)=O)NC(=O)[C@H](C)NC(=O)[C@H](C)NC(=O)[C@H](CCC(N)=O)NC(=O)[C@H](CCC(N)=O)NC(=O)[C@H](CCCCN)NC(=O)[C@@H](NC(=O)[C@H](CCCCN)NC(=O)[C@H](CCC(=O)O)NC(=O)[C@H](CCC(N)=O)NC(=O)[C@H](CCCCN)NC(=O)[C@H](CCC(=O)O)NC(=O)[C@@H](NC(=O)[C@H](CCC(=O)O)NC(=O)[C@@H](NC(=O)[C@H](CCSC)NC(=O)[C@H](CCCCN)NC(=O)[C@H](CCCNC(=N)N)NC(=O)[C@H](CC(C)C)NC(=O)[C@H](CC(C)C)NC(=O)[C@H](CCC(=O)O)NC(=O)[C@@H](N)CC(C)C)C(C)C)C(C)C)[C@@H](C)CC)C(=O)N[C@@H](CC(=O)O)C(=O)N[C@H](C(=O)NCC(N)=O)[C@@H](C)O [XVIII, [Val^18,20, Ile^26, Nle^37, Gly^40]-sauvagine(11-40)] (H-LELLRKMVEVEKQEKIKQQAANNRLL[Nle]DTG-NH2)
inhibition of the secretion of ACTH and β-END-LI [5]: inhibits the secretion of ACTH and β-END-LI
